Consider three compounds from patent publication US8629275B2, “AHCY hydrolase inhibitors for treatment of hyper homocysteinemia” (Merck Sharp & Dohme Corp., priority 2008, dated 2014).

pIC50: −log10 of the molar value.

As usually defined, the pIC50 is the IC50 on a negative log10 scale, so that one unit is a factor of ten.

The conditions of experiment [1]: mice; Shea et al, Neuromolecular Medicine 2004; cited from earlier work.
Experiment [2] has as its target recombinant expressed human or mouse AHCY enzyme (UniProt P23526). Briefly: In vitro AHCY activity assay (ThioGlo1 fluorescence, hydrolysis of SAH). The following applies: Example 1 average of n=3, Example 2 n=1. The format is biochemical.
Experimental: In vitro AHCY Activity Assay
The AHCY enzyme assay is based on the principle of fluorescence emission following incubation of a reactive dye with the products of an AHCY catalyzed reaction. The reactive dye (Thioglo1) binds homocysteine through its thiol-containing moiety. The products of the AHCY catalyzed reaction, adenosine and homocysteine, are produced from the hydrolysis of SAH (s-adenosylhomocysteine) through AHCY's hydrolase activity.
The reaction is optimized in 96-, 384-, 1536- and 3456-assay plate formats, with recombinant expressed human or mouse AHCY enzyme. When run under initial velocity conditions, the assay is suitable for IC50 and % inhibition calculations.
• 1) ThioGlo1 (catalog 595501, Calbiochem); 100 mM in DMSO • 2) SAH (catalog A-9384, Sigma); 4.69 mM with 0.06 N HCl • 3) Aristeromycin (catalog A-0928, Sigma); 100 mM in DMSO • 4) NAD (catalog 43410, Sigma); 14.5 mM in water • 5) EDTA in 500 mM pH 8 (catalog BP2482-100, Fisher) • 6) DTT stock 200 mM in water • 7) AHCY enzyme (diluted with 100 mM tris pH7.5) Dilutions Immediately Prior to use: • 1. SAH 750 μM (10×) (dilute with 100 mM Tris pH 7.5) • 2. Aristeromycin (10×) (dilute to 1 mM with 100 mM Tris pH7.5) • 3. ThioGlo1 (10×) (dilute to 100 μM in Tris pH7.5) • 4. AHCY assay buffer (3.3×): 3 μM DTT, 150 μM NAD, 3 mM EDTA Protocol: As per 96-Assay Plate Well • 1. […] Read plate (Ex 380 Em 510)
The next experiment has as its target T1, AHCY (Homo sapiens, UniProt P23526).
T1 construct: endogenous in cells; host or cells: HEK293 and/or SH-SY5Y
T1 sequence (P23526 2-432 limits assumed): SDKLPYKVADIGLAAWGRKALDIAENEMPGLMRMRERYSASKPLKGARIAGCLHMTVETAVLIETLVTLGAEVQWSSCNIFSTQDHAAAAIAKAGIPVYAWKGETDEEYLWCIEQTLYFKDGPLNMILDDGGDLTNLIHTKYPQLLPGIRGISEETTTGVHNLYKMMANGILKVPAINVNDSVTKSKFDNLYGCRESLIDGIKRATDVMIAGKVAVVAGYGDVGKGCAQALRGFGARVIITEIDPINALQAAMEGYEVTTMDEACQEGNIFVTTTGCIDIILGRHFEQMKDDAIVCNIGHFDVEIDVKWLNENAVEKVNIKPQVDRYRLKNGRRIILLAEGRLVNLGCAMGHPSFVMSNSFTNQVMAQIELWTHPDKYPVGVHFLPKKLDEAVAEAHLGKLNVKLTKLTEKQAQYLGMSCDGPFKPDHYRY
Kind of experiment: Cell-based assay of AHCY inhibition (secreted homocysteine). The following applies: secreted homocysteine from HEK293 and/or SH-SY5Y cells, 72 hrs; Example 1 average of n=4, Example 2 n=1.

Regarding `Nc1nccc2c1ncn2[C@@H]1O[C@H](CO)[C@@H](O)[C@H]1O` [3-deaza-adenosine], the “oxidative damage and cognitive impairment” value in experiment [1] is “prevent oxidative damage and cognitive impairment”. For `Nc1ncc(F)c2c1ncn2[C@@H]1C=C[C@@H](O)[C@H]1O` [Example 2, (1S, 2R, 5R)-5-(4-amino-7-fluoro-1H-imidazo[4,5-c]pyridin-1-yl)cyclopent-3-ene-1,2-diol], the values for the pIC50 (in experiment [2]; at AHCY) were 4.75 and 7.55, respectively. The matching figures for `Nc1ncc(F)c2c1ncn2[C@@H]1CC[C@@H](O)[C@H]1O` [Example 1, (1R,2S,3R)-3-(4-amino-7-fluoro-1H-imidazo[4,5-c]pyridin-1-yl)cyclopentane-1,2-diol]: 7.38 and 8.82.
